This is an account of results in article PMC5659294 (Pharmacogenetics and genomics, 2017).

Like-named read-outs stand apart in the source and are kept apart here.

This data set is classed as in vivo, human.

In the case of `CC/C(=C(\c1ccccc1)c1ccc(OCCNC)cc1)c1ccccc1` [N-desmethyltamoxifen], the “Association of season with N-desmethyltamoxifen concentration, β” value (secondary screen, fall compared to winter) is given as −1.053. In addition, the “Association of weight with N-desmethyltamoxifen concentration, β” value (secondary screen, greater weight) is listed as −0.025.

On to `CC/C(=C(\c1ccc(O)cc1)c1ccc(OCCNC)cc1)c1ccccc1` [endoxifen], for which the “Final multivariable model, steady-state endoxifen concentration, B Coefficient (95% Confidence Interval)” value is, setting by setting: (CYP2C9 Activity Phenotype) “.20 (0.03, 0.37)”; (CYP2D6 Diplotype IM/IM (vs. NM/NM)) “−.87 (−1.4, −.34)”; (CYP2D6 Diplotype IM/PM (vs. NM/NM)) “−.96 (−1.3, −.61)”; (CYP2D6 Diplotype NM/IM (vs. NM/NM)) “−.35 (−.61, −.08)”; (CYP2D6 Diplotype NM/PM (vs. NM/NM)) “−.49 (−.73, −.26)”; (CYP2D6 Diplotype PM/PM (vs. NM/NM)) −1.32 (−1.79, −.85). Further, the “Final multivariable model, steady-state endoxifen concentration, B Coefficient (95% Confidence Interval)” value is “−.48 (−.74, −.22)” (Season of Sample Collection Fall (vs. winter)); “−.49 (−.79, −.19)” (Season of Sample Collection Summer (vs. winter)); “−.013 (−.02, −.01)” (Weight (kg)). For the same molecule, the “Association of SULT1A1 activity with endoxifen/4-OH-tamoxifen ratio, β” value (secondary screen, higher SULT1A1 predicted activity phenotype) is 0.54. For the setting “secondary screen, increased CYP2C8 predicted activity phenotype”, the “Association of CYP2C8 activity with ratio of endoxifen to N-desmethyltamoxifen, β” value was 0.01. Besides, the “Mean Endoxifen (Std. Dev.)” value by setting is: (steady state, tamoxifen 20 mg daily, ABCB1 predicted activity phenotype Normal) 7.01 (4.41) n=60 ng/mL; (steady state, tamoxifen 20 mg daily, ABCB1 predicted activity phenotype Poor) 8.93 (7.53) n=37 ng/mL; (steady state, tamoxifen 20 mg daily, ABCC2 predicted activity phenotype Normal) 8.29 (4.99) n=89 ng/mL; (steady state, tamoxifen 20 mg daily, ABCC2 predicted activity phenotype Poor) 9.30 (5.34) n=10 ng/mL; (steady state, tamoxifen 20 mg daily, ABCG2 predicted activity phenotype Normal) 7.90 (5.48) n=249 ng/mL; (steady state, tamoxifen 20 mg daily, ABCG2 predicted activity phenotype Poor) 12.82 (10.85) n=3 ng/mL. The “Mean Endoxifen (Std. Dev.)” value (steady state, tamoxifen 20 mg daily, CYP1A1 predicted activity phenotype Normal) is listed as 8.05 (5.51) n=248 ng/mL; the “Mean Endoxifen (Std. Dev.)” value (steady state, tamoxifen 20 mg daily, CYP1A1 predicted activity phenotype Poor) was 3.19 (1.53) n=2 ng/mL; the “Mean Endoxifen (Std. Dev.)” value (steady state, tamoxifen 20 mg daily, CYP1A2 predicted activity phenotype Normal) was 8.13 (4.48) n=22 ng/mL; the “Mean Endoxifen (Std. Dev.)” value (steady state, tamoxifen 20 mg daily, CYP1A2 predicted activity phenotype Poor) was 9.57 (6.18) n=6 ng/mL; the “Mean Endoxifen (Std. Dev.)” value (steady state, tamoxifen 20 mg daily, CYP2A6 predicted activity phenotype Normal) is reported as 7.95 (5.57) n=220 ng/mL; the “Mean Endoxifen (Std. Dev.)” value (steady state, tamoxifen 20 mg daily, CYP2A6 predicted activity phenotype Poor) is on record as 7.46 (9.71) n=5 ng/mL. Besides, the “Mean Endoxifen (Std. Dev.)” value was 8.11 (5.33) n=151 ng/mL (steady state, tamoxifen 20 mg daily, CYP2B6 predicted activity phenotype Normal); 8.20 (4.81) n=24 ng/mL (steady state, tamoxifen 20 mg daily, CYP2B6 predicted activity phenotype Poor); 8.38 (5.72) n=205 ng/mL (steady state, tamoxifen 20 mg daily, CYP2C8 predicted activity phenotype Normal); 6.71 (5.04) n=13 ng/mL (steady state, tamoxifen 20 mg daily, CYP2C8 predicted activity phenotype Poor); 8.29 (5.61) n=189 ng/mL (steady state, tamoxifen 20 mg daily, CYP2C9 predicted activity phenotype Normal); 6.26 (4.82) n=9 ng/mL (steady state, tamoxifen 20 mg daily, CYP2C9 predicted activity phenotype Poor). For the same molecule, the “Mean Endoxifen (Std. Dev.)” value is 7.64 (5.97) n=109 ng/mL (steady state, tamoxifen 20 mg daily, CYP2C19 predicted activity phenotype Normal); 7.95 (5.66) n=13 ng/mL (steady state, tamoxifen 20 mg daily, CYP2C19 predicted activity phenotype Poor); 8.03 (5.40) n=84 ng/mL (steady state, tamoxifen 20 mg daily, CYP2E1 predicted activity phenotype Normal); 7.78 (5.39) n=288 ng/mL (steady state, tamoxifen 20 mg daily, CYP3A4 predicted activity phenotype Normal); 8.51 (7.70) n=8 ng/mL (steady state, tamoxifen 20 mg daily, CYP3A5 predicted activity phenotype Normal); 7.71 (5.29) n=240 ng/mL (steady state, tamoxifen 20 mg daily, CYP3A5 predicted activity phenotype Poor). For the same molecule, the “Mean Endoxifen (Std. Dev.)” value is 8.63 (5.57) n=87 ng/mL (steady state, tamoxifen 20 mg daily, SLCO1B1 predicted activity phenotype Normal); 6.97 (4.21) n=62 ng/mL (steady state, tamoxifen 20 mg daily, SLCO1B1 predicted activity phenotype Poor); 7.56 (4.51) n=111 ng/mL (steady state, tamoxifen 20 mg daily, SULT1A1 predicted activity phenotype Normal); 7.81 (6.59) n=45 ng/mL (steady state, tamoxifen 20 mg daily, SULT1A1 predicted activity phenotype Poor); 7.94 (5.23) n=84 ng/mL (steady state, tamoxifen 20 mg daily, SULT1A2 predicted activity phenotype Normal); 7.72 (5.70) n=74 ng/mL (steady state, tamoxifen 20 mg daily, SULT1A2 predicted activity phenotype Poor). Also, the “Mean Endoxifen (Std. Dev.)” value reads like this: (steady state, tamoxifen 20 mg daily, UGT2B7 predicted activity phenotype Normal) 7.11 (5.09) n=73 ng/mL; (steady state, tamoxifen 20 mg daily, UGT2B7 predicted activity phenotype Poor) 8.38 (5.36) n=63 ng/mL; (steady state, tamoxifen 20 mg daily, UGT2B15 predicted activity phenotype Normal) 8.07 (5.82) n=71 ng/mL; (steady state, tamoxifen 20 mg daily, UGT2B15 predicted activity phenotype Poor) 7.75 (4.48) n=75 ng/mL; (steady state, tamoxifen 20 mg daily, UGT2B17 predicted activity phenotype Normal) 7.83 (5.25) n=122 ng/mL; (steady state, tamoxifen 20 mg daily, UGT2B17 predicted activity phenotype Poor) 6.60 (5.48) n=35 ng/mL.

On to `CC/C(=C(\c1ccccc1)c1ccc(OCCN(C)C)cc1)c1ccccc1` [tamoxifen, reference compound], for which the “tamoxifen concentrations by season of sample collection” value (steady state, tamoxifen 20 mg daily) is on record as “not different between the seasons”.
